Usually melting point stands for the temperature, or range, at which the solid turns liquid.

Molecule `COc1cccc(C(=O)Nc2c(OC)cccc2C(=O)NCCc2ccccc2)c1` [Compound 91, 3-methoxy-2-(3-methoxybenzamido)-N-phenethylbenzamide] gave a melting point of 100 to 102 °C. Consider `COc1cc(NC(=O)c2ccccc2F)c(C(=O)NCCN2CCN(C)CC2)cc1OC` [Compound 59, 2-(2-fluorobenzamido)-4,5-dimethoxy-N-(2-(4-methylpiperazin-1-yl)ethyl)benzamide], for which the melting point amounted to 60 °C. As to `O=C(Nc1ccccc1C(=O)NCCCc1ccccc1)c1ccccc1F` [Compound 95, 2-fluoro-N-(2-((3-phenylpropyl)carbamoyl)phenyl)benzamide], the melting point was 61 to 63 °C. As for `O=C(NCCCN1CCOCC1)c1ccccc1NC(=O)c1cccc2ccccc12` [Compound 36, N-(2-((3-morpholinopropyl)carbamoyl)phenyl)-1-naphthamide], the melting point was 110 to 112 °C. In the case of `COc1cc(NC(=O)c2ccccc2F)c(C(=O)NCCN2CCN(C)CC2)c(OC)c1OC` [Compound 60, 6-(2-fluorobenzamido)-2,3,4-trimethoxy-N-(2-(4-methylpiperazin-1-yl)ethyl)benzamide], the melting point was found to be 130 °C. To `O=C(Nc1ccccc1C(=O)NCCCN1CCOCC1)c1ccc2ccccc2c1` [Compound 37, N-(2-((3-morpholinopropyl)carbamoyl)phenyl)-2-naphthamide] belongs 103 to 105 °C; to `COc1cccc(C(=O)Nc2cccc(F)c2C(=O)NCCN2CCN(C)CC2)c1` [Compound 110, 2-fluoro-6-(3-methoxybenzamido)-N-(2-(4-methylpiperazin-1-yl)ethyl)benzamide], 108 to 110 °C; to `COc1ccc(C(=O)Nc2c(OC)cccc2C(=O)NCCN2CCOCC2)c(OC)c1` [Compound 29, 2-(2,4-dimethoxybenzamido)-3-methoxy-N-(2-morpholinoethyl) benzamide], 103 to 106 °C.

`COc1ccc(C(=O)Nc2cc(OC)c(OC)cc2C(=O)NCCN2CCN(C)CC2)cc1` [Compound 61, 4,5-dimethoxy-2-(4-methoxybenzamido)-N-(2-(4-methylpiperazin-1-yl)ethyl)benzamide] displayed a melting point of 70 °C.

Regarding `CN1CCN(CCNC(=O)c2ccccc2NC(=O)c2ccc([N+](=O)[O-])cc2)CC1` [Compound 48, N-(2-(4-methylpiperazin-1-yl)ethyl)-2-(4-nitrobenzamido) benzamide], the melting point is 122 °C. Regarding `CN1CCN(CCNC(=O)c2ccccc2NC(=O)c2cccc(Cl)c2)CC1` [Compound 51, 2-(3-chlorobenzamido)-N-(2-(4-methylpiperazin-1-yl)ethyl) benzamide], the melting point was found to be 104 °C. As to `COc1cccc(C(=O)NCCc2ccccc2)c1NC(=O)c1ccc2ccccc2c1` [Compound 119, N-(2-methoxy-6-(phenethylcarbamoyl)phenyl)-2-naphthamide], the melting point lay in the range of 188 to 190 °C. Take `O=C(Nc1ccccc1C(=O)NCCCc1ccccc1)c1ccc2ccccc2c1` [Compound 98, N-(2-((3-phenylpropyl)carbamoyl)phenyl)-2-naphthamide]: the melting point fell in the range of 99 to 101 °C. For the molecule `COc1ccc(C(=O)Nc2ccccc2C(=O)NCCCN2CCOCC2)cc1` [Compound 35, 2-(4-methoxybenzamido)-N-(3-morpholinopropyl)benzamide], the melting point is 112 to 114 °C.

Molecule `COc1ccc(C(=O)Nc2ccccc2C(=O)NCCN2CCNCC2)cc1` [Compound 42, 2-(4-methoxybenzamido)-N-(2-(piperazin-1-yl)ethyl)benzamide] came in with a melting point of 91 °C.

On to `COc1ccc(C(=O)Nc2cc(OC)c(OC)c(OC)c2C(=O)NCCN2CCOCC2)cc1` [Compound 27, 2,3,4-trimethoxy-6-(4-methoxybenzamido)-N-(2-morpholinoethyl)benzamide], for which the melting point is 143 °C.

For `O=C(Nc1ccccc1C(=O)NCCN1CCNCC1)c1ccc([N+](=O)[O-])cc1` [Compound 38, 2-(4-nitrobenzamido)-N-(2-(piperazin-1-yl)ethyl)benzamide], the melting point amounted to 98 °C. To `CN1CCN(CCNC(=O)c2ccccc2NC(=O)c2ccc(F)cc2)CC1` [Compound 107, 2-(4-fluorobenzamido)-N-(2-(4-methylpiperazin-1-yl)ethyl)benzamide] belongs 89 to 91 °C; to `O=C(NCCCc1ccccc1)c1ccccc1NC(=O)c1cccc2ccccc12` [Compound 97, N-(2-((3-phenylpropyl)carbamoyl)phenyl)-1-naphthamide], 98 to 100 °C; to `COc1ccc(C(=O)Nc2ccccc2C(=O)NCCN2CCN(C)CC2)c(F)c1` [Compound 58, 2-fluoro-4-methoxy-N-(2-((2-(4-methylpiperazin-1-yl)ethyl)carbamoyl)phenyl)benzamide], 110 to 112 °C. Under `COc1cc(NC(=O)c2cccnc2)c(C(=O)NCCN2CCN(C)CC2)cc1OC` [Compound 64, N-(4,5-dimethoxy-2-((2-(4-methylpiperazin-1-yl)ethyl)carbamoyl)phenyl)nicotinamide] stands 126 °C; under `COc1cccc(C(=O)NCCN2CCOCC2)c1NC(=O)c1cccc(F)c1` [Compound 17, 2-(3-fluorobenzamido)-3-methoxy-N-(2-morpholinoethyl) benzamide], 128 to 131 °C; under `CN1CCN(CCNC(=O)c2ccccc2NC(=O)c2cc(F)cc(F)c2)CC1` [Compound 56, 3,5-difluoro-N-(2-((2-(4-methylpiperazin-1-yl)ethyl)carbamoyl)phenyl)benzamide], 111 °C. To `O=C(Nc1ccccc1C(=O)NCCN1CCNCC1)c1ccc(F)cc1F` [Compound 45, 2,4-difluoro-N-(2-((2-(piperazin-1-yl)ethyl)carbamoyl)phenyl) benzamide] belongs 84 °C; to `COc1cc(NC(=O)c2cccnc2)c(C(=O)NCCN2CCOCC2)c(OC)c1OC` [Compound 33, N-(3,4,5-trimethoxy-2-((2-morpholinoethyl)carbamoyl)phenyl) nicotinamide], 155 °C. Turning to `COc1cccc(C(=O)NCCCc2ccccc2)c1NC(=O)c1cccc2ccccc12` [Compound 125, N-(2-methoxy-6-((3-phenylpropyl)carbamoyl)phenyl)-1-naphthamide], the melting point lay in the range of 150 to 152 °C.

For the molecule `CN1CCN(CCNC(=O)c2ccccc2NC(=O)c2ccc(C(F)(F)F)cc2)CC1` [Compound 108], the melting point lay within 68 to 71 °C. Turning to `O=C(Nc1ccccc1C(=O)NCCN1CCOCC1)c1cccc([N+](=O)[O-])c1` [Compound 146, N-(2-morpholinoethyl)-2-(3-nitrobenzamido)benzamide], the melting point lay within 147 to 149 °C. As to `CN1CCN(CCNC(=O)c2ccccc2NC(=O)c2ccc(Cl)cc2)CC1` [Compound 52, 2-(4-chlorobenzamido)-N-(2-(4-methylpiperazin-1-yl)ethyl) benzamide], the melting point came to 99 °C.

For `CN1CCN(CCNC(=O)c2ccccc2NC(=O)c2cccc(F)c2)CC1` [Compound 50, 2-(3-fluorobenzamido)-N-(2-(4-methylpiperazin-1-yl)ethyl) benzamide], the melting point was 81 °C. `COc1cccc(C(=O)NCCc2ccccc2)c1NC(=O)c1ccc(F)cc1` [Compound 86, 2-(4-fluorobenzamido)-3-methoxy-N-phenethylbenzamide] displayed a melting point of 140 to 142 °C.

On to `COc1cccc(C(=O)Nc2c(OC)cccc2C(=O)NCCN2CCOCC2)c1` [Compound 26, 3-methoxy-2-(3-methoxybenzamido)-N-(2-morpholinoethyl) benzamide], for which the melting point lay within 110 to 113 °C.

Regarding `COc1ccc(C(=O)Nc2ccccc2C(=O)NCCCc2ccccc2)cc1` [Compound 96, 2-(4-methoxybenzamido)-N-(3-phenylpropyl)benzamide], the melting point is 93 to 94 °C. `O=C(Nc1ccccc1C(=O)NCCN1CCOCC1)c1ccc([N+](=O)[O-])cc1` [Compound 148, N-(2-morpholinoethyl)-2-(4-nitrobenzamido)benzamide]: the melting point fell in the range of 147 to 149 °C. Under `CN1CCN(CCCNC(=O)c2ccccc2NC(=O)c2cccc3ccccc23)CC1` [Compound 68, N-(2-((3-(4-methylpiperazin-1-yl)propyl)carbamoyl)phenyl)-1-naphthamide] stands 98 to 100 °C; under `O=C(NCCN1CCOCC1)c1ccccc1NC(=O)c1ccccc1[N+](=O)[O-]` [Compound 147, N-(2-morpholinoethyl)-2-(2-nitrobenzamido)benzamide], 138 to 140 °C; under `O=C(Nc1ccccc1C(=O)NCCc1ccccc1)c1cccnc1` [Compound 94, N-(2-(phenethylcarbamoyl)phenyl)nicotinamide], 94 °C. In turn, `COc1cc(NC(=O)c2cccnc2)c(C(=O)NCCN2CCN(C)CC2)c(OC)c1OC` [Compound 65, N-(3,4,5-trimethoxy-2-((2-(4-methylpiperazin-1-yl)ethyl)carbamoyl)phenyl)nicotinamide] registered a melting point of 143 °C. Regarding `COc1cc(NC(=O)c2ccccc2F)c(C(=O)NCCN2CCOCC2)cc1OC` [Compound 19, 2-(2-fluorobenzamido)-4,5-dimethoxy-N-(2-morpholinoethyl) benzamide], the melting point was 136 °C.

For the molecule `O=C(Nc1ccccc1C(=O)NCCN1CCOCC1)c1ccc(C(F)(F)F)cc1` [Compound 11, N-(2-morpholinoethyl)-2-(4-(trifluoromethyl)benzamido) benzamide], the melting point was 99 to 101 °C. Under `O=C(Nc1ccccc1C(=O)NCCc1ccccc1)c1ccc(Cl)cc1` [Compound 76, 2-(4-chlorobenzamido)-N-phenethylbenzamide] stands 104 to 106 °C; under `COc1ccccc1C(=O)Nc1c(OC)cccc1C(=O)NCCN1CCOCC1` [Compound 25, 3-methoxy-2-(2-methoxybenzamido)-N-(2-morpholinoethyl) benzamide], 105 to 107 °C. Under `O=C(Nc1ccccc1C(=O)NCCN1CCNCC1)c1ccc(Cl)cc1` [Compound 39, 2-(4-chlorobenzamido)-N-(2-(piperazin-1-yl)ethyl)benzamide] stands 60 °C.

These data come from US10273218B2, “BCL-3 inhibitors” (University College Cardiff Consultants Limited, priority 2014, dated 2019).
